The text below walks through data of US6852692B1, “Composition for promoting passive extension of bladder smooth muscle” (Shionogi & Co., Ltd., priority 1999, dated 2005).

Assay [1] has as its system urinary bladder strips. Briefly: Extension of rat urinary bladder strips under 1 g tension (isotonic transducer). The settings on record: 100 nM adrenomedullin in Tyrode's solution, tension 1 g, male rat bladder strips, repeated five times, FIG. 2. From the text:
8 to 16 weeks old male rats were sacrificed by hammering their heads. Thereafter, the rats were decapitated, followed by exsanguination. The urinary bladders were isolated from the rats. Each isolated urinary bladder was cut into four portions, thereby obtaining urinary bladder strips (FIG. 1).
The effect of adrenomedullin on the rat urinary bladder was examined by measuring contractions of the urinary bladder strips using an isotonic transducer TD-112S (manufactured Nippon Kohden Corporation) where the tension was 1 g.
The urinary bladder strips were firstly immersed in 30 ml of Tyrode's solution with 100 nM adrenomedullin (experimental sample) or without it (control sample). In this situation, the sections were attached to the […] transducer where the tension was 1 g, to continuously measure relaxation of the urinary bladder. The composition of the Tyrode's solution is as follows: 139 mM NaCl, 2.7 mM KCl, 11.9 mM NaHCO3, 2.6 mM MgCl2.6H2O, 0.4 mM NaH2PO4.2H2O, 1.7 mM CaCl2, and 5.5 mM glucose; pH 7.4).
The above-described experiment was repeated five times. Solid colored circles indicate the results of the experimental sample, while plain circles indicate averages of the control sample. Vertical bars indicate the standard deviation of a two-way analysis of variance. The vertical axis indicates the length of relaxation (mm), while the horizontal axis indicate time (minutes).

The subject of assay [2] is urinary bladder strips. Put plainly: Static tension and acetylcholine-induced contraction of rat urinary bladder strips (isometric transducer). As to the method: Urinary bladder strips were prepared in a manner similar to that of Example 1. The urinary bladder sections were attached to an isometric transducer FD pickup TB611T (manufactured by Nippon Kohden Corporation) in Tyrode's solution. Contraction of the urinary bladder was continuously measured. Firstly, 30 nM to 1 mM acetylcholine was added to the Tyrode's solution. […] In FIG. 3, the vertical axis indicates tension (unit: g), while the horizontal axis indicates time. Contraction induced by acetylcholine was confirmed, followed by washing out acetylcholine. Thereafter, 100 nM adrenomedullin was added to the Tyrode's solution. […] Further, 30 nM to 1 mM acetylcholine was added to the Tyrode's solution. As a result, recontraction of the urinary bladder occured.

For another assay, the system named is mesenteric artery. The settings on record: Nakamura et al., Jpn. J. Pharmacol. 67, 259-262 (1995), FIG. 1; cited from earlier work.
Another assay deals with urinary bladder. Particulars: Nishimura et al., British J. Pharmacology, 120, 193-200 (1997), FIG. 6; cited from earlier work.

Turning to “adrenomedullin: synthesized peptide consisting of an amino acid sequence from Tyr in position 1 to Tyr in position 50 of SEQ ID NO: 6 (rat-derived)”, the “extension (length of relaxation) of the urinary bladder wall versus absence of adrenomedullin” value with urinary bladder strips [1] was “more extended”. Also, the “contraction (static tension) of the urinary bladder after addition of adrenomedullin alone” value in the assay on urinary bladder strips [2] (100 nM adrenomedullin in Tyrode's solution, after washing out acetylcholine, FIG. 3) is “not contracted”. Moreover, the “contraction induced by acetylcholine in the presence of adrenomedullin versus acetylcholine alone” value in the assay with urinary bladder strips [2] (100 nM adrenomedullin, 30 nM to 1 mM acetylcholine) is given as “not significantly different”. Further, in the assay on mesenteric artery, the “extension of contracted mesenteric artery by addition of adrenomedullin” value is recorded as “extended by addition of adrenomedullin in a concentration-dependent manner”. In addition, in the assay with urinary bladder, the “contraction or extension (active extension) of the urinary bladder on addition of adrenomedullin” value is reported as “does not cause contraction or extension”.
